# Test results as given in patent US11053204B2, “Pyrimidinyloxy benzene derivatives as herbicides” (FMC Corporation, priority 2015, dated 2021).
# Columns and labels:
# Assay type in all cases: in vivo
# [1] = system: barnyardgrass (Echinochloa crus-galli); experiment: Test C preemergence, plant response rating; details: Preemergence
# [2] = system: pigweed (Amaranthus retroflexus); experiment: Test C postemergence, plant response rating
# Summary of the method: (§1)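 After sowing in loam–sand blend or silt loam, pots were sprayed preemergence; separately grown 1- to 4-leaf plants were sprayed postemergence. Following 13 to 15 d under greenhouse conditions, injury was rated visually on a 0 to 100 scale.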
# [3] = system: johnsongrass (Sorghum halepense); experiment: Test C postemergence, plant response rating; details: for Johnsongrass plant response rating: scale 0 to 100 (0 no effect, 100 complete control)
# Summary of the method: as §1
# [4] = system: galium (catchweed bedstraw, Galium aparine); experiment: Test C preemergence, plant response rating
# [5] = system: pigweed (Amaranthus retroflexus); experiment: Test C preemergence, plant response rating; details: Preemergence
# [6] = system: johnsongrass (Sorghum halepense); experiment: Test C preemergence, plant response rating
# [7] = system: surinam grass (Brachiaria decumbens); experiment: Test C postemergence, plant response rating
# Summary of the method: as §1
# [8] = system: pigweed, palmer (palmer pigweed, Amaranthus palmeri); experiment: Test C postemergence, plant response rating; details: for Pigweed, Palmer plant response rating: scale 0 to 100 (0 no effect, 100 complete control)
# Summary of the method: as §1
# [9] = system: nightshade (eastern black nightshade, Solanum ptycanthum); experiment: Test C postemergence, plant response rating; details: for Nightshade plant response rating: scale 0 to 100 (0 no effect, 100 complete control)
# Summary of the method: as §1
# [10] = system: Canada thistle (Cirsium arvense); experiment: Test C postemergence, plant response rating; details: for Canada Thistle plant response rating: scale 0 to 100 (0 no effect, 100 complete control)
# Summary of the method: as §1
# [11] = system: buckwheat, wild (wild buckwheat, Polygonum convolvulus); experiment: Test C postemergence, plant response rating; details: for Buckwheat, Wild plant response rating: scale 0 to 100 (0 no effect, 100 complete control)
# Summary of the method: as §1
# [12] = system: wild poinsettia (Euphorbia heterophylla); experiment: Test C postemergence, plant response rating; details: for Poinsettia, Wild plant response rating: scale 0 to 100 (0 no effect, 100 complete control)
# Summary of the method: as §1
# [13] = system: windgrass (Apera spica-venti); experiment: Test C postemergence, plant response rating
# Summary of the method: as §1
# [14] = system: geranium, cutleaf (cutleaf geranium, Geranium dissectum); experiment: Test C postemergence, plant response rating; details: for Geranium, Cutleaf plant response rating: scale 0 to 100 (0 no effect, 100 complete control)
# Summary of the method: as §1
# [15] = system: wild mustard (Sinapis arvensis); experiment: Test C postemergence, plant response rating; details: for Mustard, Wild plant response rating: scale 0 to 100 (0 no effect, 100 complete control)
# Summary of the method: as §1
# [16] = system: speedwell (bird's-eye speedwell, Veronica persica); experiment: Test C postemergence, plant response rating; details: for Speedwell plant response rating: scale 0 to 100 (0 no effect, 100 complete control)
# Summary of the method: as §1
# [17] = system: field poppy (Papaver rhoeas); experiment: Test C postemergence, plant response rating; details: for Field Poppy plant response rating: scale 0 to 100 (0 no effect, 100 complete control)
# Summary of the method: as §1
# [18] = system: field violet (Viola arvensis); experiment: Test C postemergence, plant response rating; details: for Field Violet plant response rating: scale 0 to 100 (0 no effect, 100 complete control)
# Summary of the method: as §1
# [19] = 125 g ai/ha, scale 0 to 100 (0 no effect, 100 complete control)
smiles,measurement,setting,value
N#Cc1cccc(Oc2ncc(Cl)cn2)c1CCCC(F)(F)F [Compound 72],"Plant response rating, Barnyardgrass","[1]; 62 g ai/ha, scale of 0 to 100",80
same,"Plant response rating, Barnyardgrass","[1]; 125 g ai/ha, scale of 0 to 100",100
same,"Plant response rating, Barnyardgrass","[1]; 16 g ai/ha, scale 0 to 100",25
same,"Plant response rating, Barnyardgrass","[1]; 31 g ai/ha, scale 0 to 100",90
same,"Plant response rating, Pigweed","[2]; 16 g ai/ha, scale 0 to 100",80
same,"Plant response rating, Pigweed","[2]; 31 g ai/ha, scale 0 to 100",85
same,Pigweed plant response rating,"[2]; 62 g ai/ha, scale 0 to 100 (0 no effect, 100 complete control)",85
same,Pigweed plant response rating,[2]; [19],100
same,"Plant response rating, Johnsongrass","[3]; 16 g ai/ha, scale 0 to 100",5
same,"Plant response rating, Johnsongrass","[3]; 31 g ai/ha, scale 0 to 100",10
same,Johnsongrass plant response rating,[3]; 62 g ai/ha,10
same,Johnsongrass plant response rating,[3]; 125 g ai/ha,10
same,"Plant response rating, Galium","[4]; 16 g ai/ha, scale 0 to 100",5
same,"Plant response rating, Galium","[4]; 31 g ai/ha, scale 0 to 100",75
same,"Plant response rating, Galium","[4]; 62 g ai/ha, scale of 0 to 100",90
same,"Plant response rating, Galium","[4]; 125 g ai/ha, scale of 0 to 100",100
same,"Plant response rating, Pigweed","[5]; 125 g ai/ha, scale of 0 to 100",100
same,"Plant response rating, Pigweed","[5]; 16 g ai/ha, scale 0 to 100",100
same,"Plant response rating, Pigweed","[5]; 31 g ai/ha, scale 0 to 100",100
same,"Plant response rating, Pigweed","[5]; 62 g ai/ha, scale 0 to 100",100
same,"Plant response rating, Johnsongrass","[6]; 16 g ai/ha, scale 0 to 100",5
same,"Plant response rating, Johnsongrass","[6]; 31 g ai/ha, scale 0 to 100",65
same,"Plant response rating, Johnsongrass","[6]; 62 g ai/ha, scale 0 to 100",70
same,"Plant response rating, Johnsongrass","[6]; 125 g ai/ha, scale of 0 to 100",100
FC(F)(F)CCCCc1c(Cl)cccc1Oc1ncc(Cl)cn1 [Compound 137],"Plant response rating, Surinam Grass","[7]; 16 g ai/ha, scale of 0 to 100",5
same,"Plant response rating, Surinam Grass","[7]; 31 g ai/ha, scale 0 to 100",10
same,Surinam Grass plant response rating,[7]; [19],20
same,"Plant response rating, Pigweed, Palmer","[8]; 16 g ai/ha, scale of 0 to 100",20
same,"Plant response rating, Pigweed, Palmer","[8]; 31 g ai/ha, scale 0 to 100",45
same,"Pigweed, Palmer plant response rating",[8]; 62 g ai/ha,50
same,"Pigweed, Palmer plant response rating",[8]; 125 g ai/ha,70
same,"Plant response rating, Nightshade","[9]; 16 g ai/ha, scale of 0 to 100",60
same,"Plant response rating, Nightshade","[9]; 31 g ai/ha, scale 0 to 100",80
same,Nightshade plant response rating,[9]; 62 g ai/ha,90
same,Nightshade plant response rating,[9]; 125 g ai/ha,90
same,"Plant response rating, Canada Thistle","[10]; 16 g ai/ha, scale of 0 to 100",75
same,"Plant response rating, Canada Thistle","[10]; 31 g ai/ha, scale 0 to 100",85
same,Canada Thistle plant response rating,[10]; 62 g ai/ha,98
same,Canada Thistle plant response rating,[10]; 125 g ai/ha,100
same,"Plant response rating, Buckwheat, Wild","[11]; 16 g ai/ha, scale of 0 to 100",70
same,"Plant response rating, Buckwheat, Wild","[11]; 31 g ai/ha, scale 0 to 100",75
same,"Buckwheat, Wild plant response rating",[11]; 62 g ai/ha,98
same,"Buckwheat, Wild plant response rating",[11]; 125 g ai/ha,90
same,"Plant response rating, Johnsongrass","[3]; 16 g ai/ha, scale of 0 to 100",5
same,"Plant response rating, Johnsongrass","[3]; 31 g ai/ha, scale 0 to 100",10
same,Johnsongrass plant response rating,[3]; 62 g ai/ha,10
same,Johnsongrass plant response rating,[3]; 125 g ai/ha,25
same,"Plant response rating, Poinsettia, Wild","[12]; 16 g ai/ha, scale of 0 to 100",15
same,"Plant response rating, Poinsettia, Wild","[12]; 31 g ai/ha, scale 0 to 100",65
same,"Poinsettia, Wild plant response rating",[12]; 62 g ai/ha,65
same,"Poinsettia, Wild plant response rating",[12]; 125 g ai/ha,75
same,"Plant response rating, Windgrass","[13]; 16 g ai/ha, scale of 0 to 100",10
same,"Plant response rating, Windgrass","[13]; 31 g ai/ha, scale 0 to 100",10
same,Windgrass plant response rating,[13]; [19],45
same,"Plant response rating, Geranium, Cutleaf","[14]; 16 g ai/ha, scale of 0 to 100",10
same,"Plant response rating, Geranium, Cutleaf","[14]; 31 g ai/ha, scale 0 to 100",25
same,"Geranium, Cutleaf plant response rating",[14]; 62 g ai/ha,30
same,"Geranium, Cutleaf plant response rating",[14]; 125 g ai/ha,35
same,"Plant response rating, Mustard, Wild","[15]; 16 g ai/ha, scale of 0 to 100",100
same,"Plant response rating, Mustard, Wild","[15]; 31 g ai/ha, scale 0 to 100",85
same,"Mustard, Wild plant response rating",[15]; 62 g ai/ha,100
same,"Mustard, Wild plant response rating",[15]; 125 g ai/ha,100
same,"Plant response rating, Speedwell","[16]; 16 g ai/ha, scale of 0 to 100",75
same,"Plant response rating, Speedwell","[16]; 31 g ai/ha, scale 0 to 100",80
same,Speedwell plant response rating,[16]; 62 g ai/ha,100
same,Speedwell plant response rating,[16]; 125 g ai/ha,100
same,"Plant response rating, Field Poppy","[17]; 16 g ai/ha, scale of 0 to 100",85
same,"Plant response rating, Field Poppy","[17]; 31 g ai/ha, scale 0 to 100",95
same,Field Poppy plant response rating,[17]; 62 g ai/ha,100
same,Field Poppy plant response rating,[17]; 125 g ai/ha,100
same,"Plant response rating, Field Violet","[18]; 16 g ai/ha, scale of 0 to 100",65
same,"Plant response rating, Field Violet","[18]; 31 g ai/ha, scale 0 to 100",70
same,Field Violet plant response rating,[18]; 62 g ai/ha,85
same,Field Violet plant response rating,[18]; 125 g ai/ha,85
"O=C(OCCC(F)(F)F)c1c(Br)cccc1Oc1ncc(Cl)cn1 [Compound 26, 3,3,3-trifluoropropyl 2-bromo-6-[(5-chloro-2-pyrimidinyl)oxy]benzoate]",pest or weed control at 62 g/ha,"[1]; Echinochloa crus-galli, pre-emergence, 62 g ai/ha, scale of 0 to 100",100%
same,pest or weed control at 125 g/ha,"[1]; Echinochloa crus-galli, pre-emergence, 125 g ai/ha, scale of 0 to 100",100%
same,pest or weed control at 16 g/ha,"[1]; Echinochloa crus-galli, pre-emergence, 16 g ai/ha, scale 0 to 100",40%
same,pest or weed control at 31 g/ha,"[1]; Echinochloa crus-galli, pre-emergence, 31 g ai/ha, scale 0 to 100",75%
same,pest or weed control at 16 g/ha,"[2]; Amaranthus retroflexus, post-emergence, 16 g ai/ha, scale 0 to 100",75%
same,pest or weed control at 31 g/ha,"[2]; Amaranthus retroflexus, post-emergence, 31 g ai/ha, scale 0 to 100",98%
same,pest or weed control at 62 g/ha,"[2]; Amaranthus retroflexus, post-emergence, 62 g ai/ha, scale 0 to 100 (0 no effect, 100 complete control)",98%
same,pest or weed control at 125 g/ha,"[2]; Amaranthus retroflexus, post-emergence, 125 g ai/ha, scale 0 to 100 (0 no effect, 100 complete control)",100%
same,"Plant response rating, Johnsongrass","[3]; 16 g ai/ha, scale 0 to 100",10
same,"Plant response rating, Johnsongrass","[3]; 31 g ai/ha, scale 0 to 100",20
same,Johnsongrass plant response rating,[3]; 62 g ai/ha,20
same,Johnsongrass plant response rating,[3]; 125 g ai/ha,25
same,"Plant response rating, Galium","[4]; 16 g ai/ha, scale 0 to 100",5
same,"Plant response rating, Galium","[4]; 31 g ai/ha, scale 0 to 100",90
same,"Plant response rating, Galium","[4]; 62 g ai/ha, scale of 0 to 100",95
same,"Plant response rating, Galium","[4]; 125 g ai/ha, scale of 0 to 100",100
same,"Plant response rating, Pigweed","[5]; 125 g ai/ha, scale of 0 to 100",100
same,"Plant response rating, Pigweed","[5]; 16 g ai/ha, scale 0 to 100",100
same,"Plant response rating, Pigweed","[5]; 31 g ai/ha, scale 0 to 100",100
same,"Plant response rating, Pigweed","[5]; 62 g ai/ha, scale 0 to 100",100
same,"Plant response rating, Johnsongrass","[6]; 16 g ai/ha, scale 0 to 100",55
same,"Plant response rating, Johnsongrass","[6]; 31 g ai/ha, scale 0 to 100",50
same,"Plant response rating, Johnsongrass","[6]; 62 g ai/ha, scale 0 to 100",80
same,"Plant response rating, Johnsongrass","[6]; 125 g ai/ha, scale of 0 to 100",98
